In test [1] the target is T1, 4R tau151-391 aggregates in brainstem sections from SHR72 rats (Homo sapiens, UniProt P10636).
T1 construct: tissue AXON Neuroscience; host or cells: brain (brainstem) sections of SHR72 transgenic rats
The test is described as follows: Binding to SHR72 transgenic rat brain sections. The conditions noted are these: 50 μM, colocalization with AT8. The text has this:
Since future PET studies for development of these compounds would require kinetic modeling for their assessment in vivo, we tested their performance in tau transgenic rats. Rat brains and blood volumes are about 6- and 10-fold larger, respectively, than those of mice and thus enable higher resolution imaging and ample volume for repeated blood sampling. We used two transgenic rat lines expressing human-truncated tau comprising the proline-rich region and either three microtubule binding domains (3R tau151-391, SH24)[28] or four microtubule binding domains (4R tau151-391, SHR72).[29] […] However, compared to the SHR24 rat brain sections, there were less inclusions detected, which seems to indicate the compounds have preferential binding toward the three repeat forms of tau in these rat models.
Fresh frozen rat brain coronal sections (10 μm) were stored on slides at −80 °C until use. Sections were fixed in ice cold acetone for 10 min and air-dried and then rehydrated twice for 5 min with buffer (10 mM PBS with 0.1% Triton X-100) before application of 5% bovine serum albumin for 1 h and two more 5 min buffer washes. […] The green autofluorescence of PBB3 and LM229 was visualized using a 488 nm filter and fluorescence of AT8 using a 568 nm filter on a Leica DM6000 microscope.

Test [2] has as its target β-amyloid in AD frontal cortex sections (Homo sapiens, UniProt P05067). The test is described as follows: Staining of post-mortem AD frontal cortex sections, β-amyloid. An excerpt: To further validate LM229 as a potential radiotracer for translational research, we investigated its binding to tau aggregates in human globus pallidus/putamen from progressive supranuclear palsy (PSP) subjects (Figure 7) and its selectivity for tau over β-amyloid pathology in AD frontal cortex sections (Figure 8). […] In slices from frontal cortex of AD brains, LM229 gave rise to strong signal (Figure 8A), which colocalized with AT8 immunofluorescence (Figure 8B).

Test [3] addresses tau (AT8) in AD frontal cortex sections (Homo sapiens, UniProt P10636). The test is described as follows: Staining of post-mortem AD frontal cortex sections, tau. As to the method:
To further validate LM229 as a potential radiotracer for translational research, we investigated its binding to tau aggregates in human globus pallidus/putamen from progressive supranuclear palsy (PSP) subjects (Figure 7) and its selectivity for tau over β-amyloid pathology in AD frontal cortex sections (Figure 8).
In slices from frontal cortex of AD brains, LM229 gave rise to strong signal (Figure 8A), which colocalized with AT8 immunofluorescence (Figure 8B). […]
(§1) buffer) for 1 h at room temperature. Following 3 washes in PBS/0.1% Triton X-100, 50 µM LM229 (diluted in 1:1 blocking buffer/ethanol) was then added for 1 h at room temperature. Nuclei were stained with DAPI (0.1mg/ml for 10 min), washed and tissues mounted in FluorSaveTM prior to analysis using fluorescence […]
(§2) Binding affinity of all compounds with tau fibrils
Microscale Thermophoresis was first used to screen whether there were interaction between the compounds and tau fibrils. For this procedure 200 µL, 5 µM tau fibrils were mixed with 200 µL, 10 µM NT647-NHS dye and then incubated in dark for 30 minutes. Further dialysis (18 hours, changing the buffer after the first 4 hours) was used to remove the free dye giving a 2.5 µM solution of label led protein. […] With each compound, two concentrations (1µM and 1nM) were used to mix with 100nM tau fibrils and then loaded to the MST instrument to read out the MST data curve. […]

For test [4], the target named is T2, tau inclusions in brain sections from transgenic P301S tau mice (human 0N4R tau) (Homo sapiens, UniProt P10636, P618S).
T2 construct: from tissue; host or cells: brain of transgenic P301S tau mice (C57Bl/6 background)
T2 sequence (P10636 1-383 isoform P10636-6 P243S): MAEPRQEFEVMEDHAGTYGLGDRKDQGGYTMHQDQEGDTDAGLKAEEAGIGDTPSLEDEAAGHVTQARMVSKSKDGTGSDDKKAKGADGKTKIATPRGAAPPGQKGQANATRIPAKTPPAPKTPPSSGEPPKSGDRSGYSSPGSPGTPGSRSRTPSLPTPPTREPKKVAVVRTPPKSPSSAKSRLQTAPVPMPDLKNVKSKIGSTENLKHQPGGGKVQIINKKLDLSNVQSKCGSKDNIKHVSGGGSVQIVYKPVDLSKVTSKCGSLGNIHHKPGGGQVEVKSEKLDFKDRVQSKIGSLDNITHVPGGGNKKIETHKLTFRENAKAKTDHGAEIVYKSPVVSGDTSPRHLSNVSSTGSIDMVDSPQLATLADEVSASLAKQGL
Put plainly: In vitro fluorescence microscopy of binding to transgenic P301S tau mouse brain sections. As to the method: We then screened all of the compounds for their binding to tau inclusions in brain sections from transgenic P301S tau mice, which express the shortest isoform (0N4R) of human 4-repeat (4R) tau,[18] using their autofluorescence properties to rapidly analyze their binding.
Mice were perfused with PBS followed by 4% PFA. Following 24 h in 4% PFA, the brains were transferred to 20% sucrose prior to being embedded in OCT for cryo-sectioning. Sections (14 μm) were incubated with 50 μM LM229 or PBB3 for 1 h, washed in PBS + 0.1% Triton X-100, and cover-slipped with Vectashield mounting medium. Sections were imaged using a Leica DM6000 microscope. Mouse monoclonal AT8 (MN1020) or AT100 (MN1060) were from ThermoFisher and used at 1:1000. Anti-mouse secondary antibody was conjugated to AlexaFluor647.

For test [5], the target named is tau aggregates in human globus pallidus/putamen from PSP subjects (Homo sapiens, UniProt P10636). The test is described as follows: Staining of post-mortem PSP brain tissue. To be noted: colocalized with AT8. As to the method:
To further validate LM229 as a potential radiotracer for translational research, we investigated its binding to tau aggregates in human globus pallidus/putamen from progressive supranuclear palsy (PSP) subjects (Figure 7) and its selectivity for tau over β-amyloid pathology in AD frontal cortex sections (Figure 8). […]
as §1, §2
Microscale Thermophoresis was first used to screen whether there were interaction between the compounds and tau fibrils. […] With each compound, two concentrations (1µM and 1nM) were used to mix with 100nM tau fibrils and then loaded to the MST instrument to read out the MST data curve. […]
DRG were incubated with the indicated concentrations of LM229 or PBB3 for 20 minutes at room temperature, washed 3 times in PBS, and imaged on a Leica DMI 4000B microscope using a Leica DFC3000 G camera and the Leica application suite 4.0.0.11706. Fluorescence intensity was measured in 10-16 neurons each from 3 independent cultures using Image J (imagej.nih.gov/ij/). […]

SMILES strings stand for the structures.

Sequence of tau aggregates in human globus pallidus/putamen from PSP subjects (P10636 561-698 limits assumed): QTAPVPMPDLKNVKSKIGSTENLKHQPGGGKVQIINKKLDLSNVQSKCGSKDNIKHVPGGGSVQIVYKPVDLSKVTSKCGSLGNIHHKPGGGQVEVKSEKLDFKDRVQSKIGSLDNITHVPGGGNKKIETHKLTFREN
Sequence of tau (AT8) in AD frontal cortex sections (P10636 623-708 limits assumed): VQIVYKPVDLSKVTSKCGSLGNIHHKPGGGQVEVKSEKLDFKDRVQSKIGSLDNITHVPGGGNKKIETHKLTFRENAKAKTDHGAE
Sequence of β-amyloid in AD frontal cortex sections (P05067 672-711 limits assumed): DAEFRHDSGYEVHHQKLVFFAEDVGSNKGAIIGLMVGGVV
T1 sequence (P10636 468-708): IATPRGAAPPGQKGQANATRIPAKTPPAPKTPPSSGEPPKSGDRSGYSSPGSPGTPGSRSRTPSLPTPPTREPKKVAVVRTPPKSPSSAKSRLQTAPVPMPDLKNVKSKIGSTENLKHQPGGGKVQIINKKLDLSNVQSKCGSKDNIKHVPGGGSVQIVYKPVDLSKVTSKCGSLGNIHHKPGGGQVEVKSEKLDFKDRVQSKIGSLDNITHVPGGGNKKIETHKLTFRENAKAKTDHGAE

In the case of `CNc1ccc(/C=C/C=C/c2nc3cc(F)c(O)cc3s2)cn1` [LM229], the “Binding to tau in SHR72 rat brain sections” value in test [1] is reported as “bound to tau in brain sections from SHR72 rats”. The “Fluorescence intensity colocalized with Aβ relative to tau” value in test [2] was “lower”. For the same molecule, in test [3], the “Signal on AD frontal cortex slices colocalized with AT8” value is “strong signal”. The “Binding to P301S tau mouse brain sections, 2 months of age” value in test [4] (2 months old mice) is “Rare binding”. The “Binding to P301S tau mouse brain sections, 6 months of age” value in test [4] (6 months old mice) is “significant binding to large populations of neurons”. The “Binding to tau inclusions in P301S tau mouse brain sections” value in test [4] (autofluorescence, co-staining with AT8 and AT100) was “intense, specific binding”. Also, the “Binding to WT mouse brain sections” value in test [4] (brainstem sections from WT animals) is recorded as “No specific binding”. The “Signal on PSP sections” value in test [5] is on record as “intense signal”.

The values above are taken from publication PMC8176454, “Synthesis and Assessment of Novel Probes for Imaging Tau Pathology in Transgenic Mouse and Rat Models” (ACS Chemical Neuroscience, 2021).
